Results on 36 compounds are retold here after patent US20090069320A1, “Substituted 4-Amino-Quinazoline Compounds with Metabotropic Glutamate Receptor Regulating Activity and Uses Thereof” (Gruenenthal GmbH, priority 2006, published 2009).

This test has as its target T1, mGluR5 receptor (Sus scrofa, UniProt I3LUI7).
T1 construct: 450 μg of protein from brain homogenate with 5 nM ^3[H]-MPEP; from tissue; host or cells: pig brain halves without medulla, cerebellum and pons
Nature of the test: [3H]-MPEP mGluR5 receptor binding assay (pig brain homogenate). The settings on record: 5 nM [3H]-MPEP; for inhibition at 10 µM / % Inhibition of mGluR5 Receptor (pig) [^3H]-MPEP Bond at 10 μM: 10 μM compound; for inhibition at 10 µM: read-out: % Inhibition of mGluR5 Receptor (pig) [^3H]-MPEP Bond at 10 μM. In a few lines: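 Radioligand displacement of 5 nM [3H]-MPEP from pig brain homogenate (450 μg protein; medulla, cerebellum and pons removed) in 20 mM Hepes pH 8.0. Compounds were tested at 10 μM, incubated 60 min at room temperature, then filtered and counted by scintillation. Non-specific binding was defined with 10 μM MPEP.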

Where [1] appears, read: read-out: IC50 mGluR5 Receptor (pig) [^3H]-MPEP Bond.

Molecules are shown by their SMILES. Structures can show the parent of a compound that is named as a salt. Where two headings read alike, the source gives them in different places.

T1 sequence (I3LUI7 19-1212): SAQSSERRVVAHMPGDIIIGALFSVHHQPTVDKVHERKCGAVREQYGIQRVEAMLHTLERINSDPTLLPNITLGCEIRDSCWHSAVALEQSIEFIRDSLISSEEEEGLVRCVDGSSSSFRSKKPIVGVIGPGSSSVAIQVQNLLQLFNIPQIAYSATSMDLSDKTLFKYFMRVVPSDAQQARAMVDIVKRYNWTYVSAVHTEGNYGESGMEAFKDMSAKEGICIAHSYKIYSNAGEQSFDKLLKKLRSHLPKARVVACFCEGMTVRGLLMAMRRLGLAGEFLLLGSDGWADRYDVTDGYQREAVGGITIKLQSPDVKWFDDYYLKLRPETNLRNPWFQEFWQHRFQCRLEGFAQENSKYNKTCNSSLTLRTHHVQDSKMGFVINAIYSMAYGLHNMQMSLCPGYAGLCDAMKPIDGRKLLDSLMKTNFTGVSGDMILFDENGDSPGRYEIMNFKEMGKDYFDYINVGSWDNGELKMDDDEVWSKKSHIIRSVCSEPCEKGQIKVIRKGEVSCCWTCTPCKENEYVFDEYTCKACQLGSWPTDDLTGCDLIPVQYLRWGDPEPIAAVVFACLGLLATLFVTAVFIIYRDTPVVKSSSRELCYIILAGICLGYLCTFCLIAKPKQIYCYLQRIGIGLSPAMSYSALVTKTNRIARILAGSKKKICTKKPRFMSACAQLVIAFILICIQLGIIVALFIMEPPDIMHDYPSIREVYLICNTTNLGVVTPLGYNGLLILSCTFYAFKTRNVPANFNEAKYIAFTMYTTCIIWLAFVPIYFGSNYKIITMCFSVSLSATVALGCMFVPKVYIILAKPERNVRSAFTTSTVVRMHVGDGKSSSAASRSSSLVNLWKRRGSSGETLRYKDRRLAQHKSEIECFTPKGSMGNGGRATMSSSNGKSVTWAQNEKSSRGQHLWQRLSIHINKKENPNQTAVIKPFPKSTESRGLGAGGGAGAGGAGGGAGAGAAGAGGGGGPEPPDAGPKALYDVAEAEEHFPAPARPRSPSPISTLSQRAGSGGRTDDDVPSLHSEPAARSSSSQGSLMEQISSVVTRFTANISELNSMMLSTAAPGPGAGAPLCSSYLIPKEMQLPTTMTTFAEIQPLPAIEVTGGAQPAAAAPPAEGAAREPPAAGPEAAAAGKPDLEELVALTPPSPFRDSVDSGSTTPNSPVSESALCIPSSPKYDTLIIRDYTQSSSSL

The term IC50 denotes the concentration that inhibits the measured activity by half. In the case of `N#CCC(=O)N(Cc1cc(-c2ccc3ncnc(NC4CC4)c3c2)ccc1F)C1CC1` [Example 277, 2-cyano-N-cyclopropyl-N-(5-(4-(cyclopropylamino)quinazolin-6-yl)-2-fluorobenzyl)acetamide], under setting [1], the IC50 was 0.04 µM.

As for `O=C1CCCC(=O)N1Cc1cc(-c2ccc3ncnc(NC4CC4)c3c2)ccc1F` [Example 278, 1-(5-(4-(cyclopropylamino)quinazolin-6-yl)-2-fluorobenzyl)piperidine-2,6-dione], under setting [1], the IC50 worked out at 0.35 µM. As for `CC(=O)N(Cc1cc(-c2ccc3ncnc(NC4CC4)c3c2)ccc1F)C(C)(C)C` [Example 279, N-tert-butyl-N-(5-(4-(cyclopropylamino)quinazolin-6-yl)-2-fluorobenzyl)acetamide], under setting [1], the IC50 turned out to be 9.42 µM. The same measure, in the same setting: the same measure for `N#CCC(=O)N(Cc1cc(-c2ccc3ncnc(NC4CC4)c3c2)ccc1F)C1CC1` [Example 281, 2-cyano-N-cyclopropyl-N-(5-(4-(cyclopropylamino)quinazolin-6-yl)-2-fluorobenzyl)acetamide hydrochloride]: 0.03 µM; for `O=C(CC(F)(F)F)N(Cc1cc(-c2ccc3ncnc(NC4CC4)c3c2)ccc1F)C1CC1` [Example 282, N-cyclopropyl-N-(5-(4-(cyclopropylamino)quinazolin-6-yl)-2-fluorobenzyl)-3,3,3-trifluoropropanamide]: 0.05 µM; for `O=C(CCl)N(Cc1cc(-c2ccc3ncnc(NC4CC4)c3c2)ccc1F)C1CC1` [Example 283, 2-chloro-N-cyclopropyl-N-(5-(4-(cyclopropylamino)quinazolin-6-yl)-2-fluorobenzyl)acetamide]: 0.29 µM.

Turning to `CCCCNc1ncnc2ccc(-c3cccc(CN4C(=O)CCC4=O)c3)cc12` [Example 286, 1-(3-(4-(butylamino)quinazolin-6-yl)benzyl)pyrrolidine-2,5-dione hydrochloride], the IC50 under setting [1] is 0.39 µM. For the compound `O=C1CCC(=O)N1Cc1cccc(-c2ccc3ncnc(NC4CCCC4)c3c2)c1` [Example 287, 1-(3-(4-(cyclopentylamino)quinazolin-6-yl)benzyl)pyrrolidine-2,5-dione hydrochloride], the IC50 under setting [1] stood at 0.06 µM. As a reminder, the inhibition is how much of the control response was suppressed. For `O=C1CCC(=O)N1Cc1cccc(-c2ccc3nc(NCc4ccccc4)nc(NC4CC4)c3c2)c1` [Example 291, 1-(3-(2-(benzylamino)-4-(cyclopropylamino)quinazolin-6-yl)benzyl)pyrrolidine-2,5-dione], the inhibition at 10 µM came out at 49%. Consider `c1cc(CN2CCc3ccccc32)cc(-c2ccc3ncnc(NC4CC4)c3c2)c1` [Example 292, N-cyclopropyl-6-(3-(indolin-1-ylmethyl)phenyl)quinazoline-4-amine], for which the inhibition at 10 µM was 95%.

As for `c1cc(CNC2CC2)cc(-c2ccc3ncnc(NC4CC4)c3c2)c1` [Example 294, N-cyclopropyl-6-(3-((cyclopropylamino)methyl)-phenyl)quinazoline-4-amine], the IC50 under setting [1] came to 8.67 µM. `CC(C)(C)OC(=O)NCc1cccc(-c2ccc3ncnc(NC4CC4)c3c2)c1` [Example 295, tert-butyl 3-(4-(cyclopropylamino)quinazolin-6-yl)benzylcarbamate]: the inhibition at 10 µM was 0%.

On to `COc1ccc(-c2ccc3ncnc(NC4CC4)c3c2)cc1CNC1CC1` [Example 298, N-cyclopropyl-6-(3-((cyclopropylamino)methyl)-4-methoxyphenyl)quinazoline-4-amine], for which, under setting [1], the IC50 is 10.8 µM. On the same count and under the same terms, the value for `Fc1ccc(-c2ccc3ncnc(NC4CC4)c3c2)cc1CNC1CC1` [Example 299, N-cyclopropyl-6-(3-((cyclopropylamino)methyl)-4-fluorophenyl)quinazoline-4-amine] was 2.01 µM. `c1nc(NC2CC2)c2cc(-c3csc(CNC4CC4)c3)ccc2n1` [Example 300, N-cyclopropyl-6-(5-((cyclopropylamino)methyl)thiophen-3-yl)quinazoline-4-amine]: the inhibition at 10 µM turned out to be 51%. Regarding `Fc1ccc(-c2ccc3ncnc(NC4CC4)c3c2)c(F)c1CNC1CC1` [Example 304, N-cyclopropyl-6-(3-((cyclopropylamino)methyl)-2,4-difluorophenyl)quinazoline-4-amine], the half-maximal inhibitory concentration (IC50) under setting [1] turned out to be 3.11 µM. Consider `Cc1cc(CNC2CC2)cc(-c2ccc3ncnc(NC4CC4)c3c2)c1` [Example 306, N-cyclopropyl-6-(3-((cyclopropylamino)methyl)-5-methylphenyl)quinazoline-4-amine], for which the inhibition at 10 µM was 33%.

On to `CC(NC1CC1)c1cccc(-c2ccc3ncnc(NC4CC4)c3c2)c1` (stereo not drawn) [Example 307, N-cyclopropyl-6-(3-(1-(cyclopropylamino)ethyl)phenyl)quinazoline-4-amine], for which the inhibition at 10 µM is 37%. As for `CCCCNCc1cccc(-c2ccc3ncnc(NC4CC4)c3c2)c1` [Example 310, 6-(3-((butylamino)methyl)phenyl)-N-cyclopropylquinazoline-4-amine], the inhibition at 10 µM is 50%. As for `c1cc(CNCc2ccco2)cc(-c2ccc3ncnc(NC4CC4)c3c2)c1` [Example 312, N-cyclopropyl-6-(3-((furan-2-ylmethylamino)methyl)phenyl)quinazoline-4-amine dihydrochloride], the inhibition at 10 µM was found to be 58%. For `ClCCNCc1cccc(-c2ccc3ncnc(NC4CC4)c3c2)c1` [Example 315, 6-(3-((2-chloroethylamino)methyl)phenyl)-N-cyclopropylquinazoline-4-amine], the IC50 (IC50 mGluR5 Receptor (pig) [^3H]-MPEP Bond) turned out to be 2.74 µM. With `N#CCNCc1cccc(-c2ccc3ncnc(NC4CC4)c3c2)c1` [Example 320, 2-(3-(4-(cyclopropylamino)quinazolin-6-yl)benzylamino)acetonitrile], the inhibition at 10 µM is 72%. Turning to `CC(C)(C)Nc1ncnc2ccc(-c3ccc(F)c(CNC4CC4)c3)cc12` [Example 322, N-tert-butyl-6-(3-((cyclopropylamino)methyl)-4-fluorophenyl)quinazoline-4-amine], the IC50 under setting [1] was 2.98 µM. As for `Fc1c(CNC2CC2)cccc1-c1ccc2ncnc(NC3CC3)c2c1` [Example 324, N-cyclopropyl-6-(3-((cyclopropylamino)methyl)-2-fluorophenyl)quinazoline-4-amine], the inhibition at 10 µM was 55%.

As to `O=C(O)CCC(=O)NCc1cccc(-c2ccc3ncnc(Nc4ccccc4)c3c2)c1` [Example 329, 4-oxo-4-(3-(4-(phenylamino)quinazolin-6-yl)benzylamino)butyric acid], the inhibition at 10 µM was 57%.

Consider `O=C(O)CCC(=O)NCc1cccc(-c2ccc3ncnc(NCC(=O)O)c3c2)c1` [Example 330, 4-(3-(4-(carboxymethylamino)quinazolin-6-yl)benzylamino)-4-oxobutyric acid], for which the inhibition at 10 µM stood at 47%. Same read-out and setting: the same measure for `COc1ccc(C(=O)N(Cc2cc(-c3ccc4ncnc(NC5CC5)c4c3)ccc2F)C2CC2)cc1OC` [Example 366, N-cyclopropyl-N-(5-(4-(cyclopropylamino)quinazolin-6-yl)-2-fluorobenzyl)-3,4-dimethoxybenzamide]: 90%; for `O=C(c1cccnc1)N(Cc1cc(-c2ccc3ncnc(NC4CC4)c3c2)ccc1F)C1CC1` [Example 367, N-cyclopropyl-N-(5-(4-(cyclopropylamino)quinazolin-6-yl)-2-fluorobenzyl)nicotinamide]: 94%.

Take `O=S(=O)(c1ccccc1)N(Cc1cc(-c2ccc3ncnc(NC4CC4)c3c2)ccc1F)C1CC1` [Example 368, N-cyclopropyl-N-(5-(4-(cyclopropylamino)quinazolin-6-yl)-2-fluorobenzyl)benzole sulfonamide]: the “% Inhibition of mGluR5 Receptor (pig) [^3H]-MPEP Bond at 10 μM” value turned out to be 85%.

With `Cc1cc(C(=O)N(Cc2cccc(-c3ccc4ncnc(NCCc5ccccc5)c4c3)c2)C2CC2)n(C)n1` [Example 369, N-cyclopropyl-1,3-dimethyl-N-(3-(4-(phenethylamino)quinazolin-6-yl)benzyl)-1H-pyrazole-5-carboxamide], the inhibition at 10 µM was determined as 34%. Still for that read-out and setting: the value for `O=C(c1ccccn1)N(Cc1cccc(-c2ccc3ncnc(NCCc4ccccc4)c3c2)c1)C1CC1` [Example 370, N-cyclopropyl-N-(3-(4-(phenethylamino)quinazolin-6-yl)benzyl)picolinamide] was 52%; that for `O=C(c1cccc(F)c1)N(Cc1cc(-c2ccc3ncnc(NC4CC4)c3c2)ccc1F)C1CC1` [Example 374, N-cyclopropyl-N-(5-(4-(cyclopropylamino)quinazolin-6-yl)-2-fluorobenzyl)-3-fluorobenzamide] was 91%. Regarding `O=S(=O)(c1cccc(C(F)(F)F)c1)N(Cc1cc(-c2ccc3ncnc(NC4CC4)c3c2)ccc1F)C1CC1` [Example 375, N-cyclopropyl-N-(5-(4-(cyclopropylamino)quinazolin-6-yl)-2-fluorobenzyl)-3-(trifluoromethyl)benzole sulfonamide], the “% Inhibition of mGluR5 Receptor (pig) [^3H]-MPEP Bond at 10 μM” value is 34%.

As to `O=C(c1ccncc1)N(Cc1cccc(-c2ccc3ncnc(NCCc4ccccc4)c3c2)c1)C1CC1` [Example 377, N-cyclopropyl-N-(3-(4-(phenethylamino)quinazolin-6-yl)benzyl)isonicotinamide], the inhibition at 10 µM stood at 59%. The same measure, in the same setting: the value for `Cc1cccc(CNc2ncnc3ccc(-c4cccc(CN(C5CC5)S(C)(=O)=O)c4)cc23)c1` [Example 380, N-cyclopropyl-N-(3-(4-(3-methylbenzylamino)quinazolin-6-yl)benzyl)methane sulfonamide] was 46%; that for `O=C(c1ccc(F)cc1F)N(Cc1cc(-c2ccc3ncnc(NC4CC4)c3c2)ccc1F)C1CC1` [Example 381, N-cyclopropyl-N-(5-(4-(cyclopropylamino)quinazolin-6-yl)-2-fluorobenzyl)-2,4-difluorobenzamide] was 90%.
